Numbers after ± are expanded uncertainties.
How the values were obtained:
[1] = Crystal; DTA
[2] = molar enthalpy of vaporization or sublimation; conditions: Liquid, DSC
[3] = Molar enthalpy of transition or fusion; conditions: Crystal; DSC

Row | Compound | Normal melting temperature [1] | molar enthalpy ([2]; 467 K) | Molar enthalpy of transition or fusion [3] | molar enthalpy ([2]; 461 K) | molar enthalpy ([2]; 466 K)
1 | CCNc1nc(NC(C)(C)C)nc(SC)n1 | 99.2 ± 0.5 °C | 20.8 ± 2.39 kcal/mol | 5.02 ± 0.956 kcal/mol |  | 
2 | CCNc1nc(NCC)nc(SC)n1 [2-methylthio-4,6-bis(ethylamino)-1,3,5-triazine] | 77.4 ± 0.5 °C |  | 5.74 ± 0.478 kcal/mol | 21 ± 1.91 kcal/mol | 
3 | CCNc1nc(NC(C)C)nc(SC)n1 [2-methylthio-4-ethylamino-6-isopropylamino-1,3,5-triazine] | 83.6 ± 0.5 °C |  | 6.21 ± 0.956 kcal/mol |  | 21.7 ± 1.91 kcal/mol

Reference: the NIST ThermoML archive (doi:10.1021/je600580r)
